Legend:
rat hindquarters = assay: Rat hindquarter preparation, responses to high-K+ Krebs' solution; conditions: for TEST A RAT HINDQUARTERS % Recovery: recovery of response at 1 h following perfusion with normal Krebs' solution, 10^-7 M; for TEST A RAT HINDQUARTERS % Inhibition: maximum percentage inhibition, 10^-7 M perfused for 20 minutes, 80 mM K+; for duration of anti-vasoconstrictor effects, compared with terfenadine and cinnarizine: in vitro, rat hindquarter preparation
Experimental: A Rat hindquarter preparation
Responses of rat hindquarters perfused at constant rate were elicited by high -K^+ (80 mM) Krebs' solution. Test compounds (10^-7 M) were perfused for 20 minutes and then compound-free Krebs' perfusion was resumed for 40 min.

histamine aerosol = assay: Histamine aerosol, protection of guinea-pigs; assay type: in vivo, guinea-pig
adrenaline = assay: Protection against a lethal dose of adrenaline; assay type: in vivo, swiss mice; conditions: Mus musculus; 100 mg/kg oral, 1 h before 2 mg/kg intravenous adrenaline; mice; read-out: TEST D ANTI-ADRENALINE (animals surviving 15 min later)
Experimental: D. Protection against a lethal dose of adrenaline
Groups of 10 .male. swiss mice (25±3 g) were pretreated orally with compounds (100 mg/kg) suspended in carboxymethyl cellulose 1 h before receiving an intraveneous injection of 2 mg/kg adrenaline. The number of animals surviving 15 min later was noted and expressed as a percentage.

histamine H1-receptor = assay: Antihistamine activity in anaesthetized rats (vasodepressor responses to histamine); assay type: in vivo, rat; conditions: 0.3 mg/kg i.v.; pentobarbitone anaesthetized rats
Experimental: B. Antihistamine activity in anaesthetized rats
Test compounds were administered to pentobarbitone anaesthetized rats at 0.3 mg/kg i.v. following stable, submaximal, vasodepressor responses to histamine.

in vivo = conditions: mouse, oral, mice, 48 hour period, unit from method b50, read-out: TEST E ACUTE TOXICITY (approximate LD50)
Experimental: Acute toxicity was assessed in groups of 3 mice given the test compounds suspended in 1% carboxymethylcellulose at 30, 100, 300 and 1000 mg/kg orally.

[1] = 0.3 mg/kg oral, 1 hour before 5 minute challenge of nebulized histamine, groups of 5

SMILES | TEST A RAT HINDQUARTERS % Recovery (rat hindquarters) | TEST C ANT[…] (protection) (histamine aerosol; [1]) | H1-histamine receptor antagonist properties, orally against histamine aerosol (histamine aerosol; oral) | responders at 100 mg/kg (adrenaline) | TEST A RAT HINDQUARTERS % Inhibition (rat hindquarters) | TEST B ANTIHISTAMINE IN RAT (inhibition of the histamine response) (histamine H1-receptor) | LD50 at 48 h (in vivo) | duration of anti-vasoconstrictor effects, compared with terfenadine and cinnarizine (rat hindquarters) | TEST C ANTIHISTAMINE AEROSOL (protection) (histamine aerosol; [1])
CC(C)(C)c1ccc(C(=O)CCCN2CCC(OC(c3ccccc3)c3ccccc3)CC2)cc1 [Compound 1, 4-diphenylmethoxy-1-[3-(4-tert-butylbenzoyl)propyl]-piperidine] | 56% | +++ (>50% protection) | extremely potent | 50% |  |  |  |  | 
CC(C)c1ccc(C(=O)CCCN2CCC(OC(c3ccccc3)c3ccccc3)CC2)cc1 [Compound 2, 4-diphenylmethoxy-1-[3-(4-isopropylbenzoyl)propyl]-piperidine] | 50% |  |  | 50% | 59% | +++ (50-75%) | > 1000 mg/kg |  | 
CCc1ccc(C(=O)CCCN2CCC(OC(c3ccccc3)c3ccccc3)CC2)cc1 [Compound 3, 4-diphenylmethoxy-1-[3-(4-ethylbenzoyl)propyl]-piperidine] | 50% |  |  | 20% | 65% | +++ (50-75%) |  | much longer lasting | 
O=C(CCCN1CCC(OC(c2ccccc2)c2ccccc2)CC1)c1ccc(CC2CC2)cc1 [Compound 4, 4-diphenylmethoxy-1-[3-(4-cyclopropylmethylbenzoyl)propyl]-piperidine] | 40% |  |  | 40% | 75% | ++ (25-50%) |  | much longer lasting | 
CC(C)(C)c1ccc(C(=O)CCCN2CCC(OC(c3ccccc3)c3cccs3)CC2)cc1 (stereo not drawn) [Compound 5, 4-[α-(2-thienyl)benzyloxy]-1-[3-(4-tert-butylbenzoyl)propyl]-piperidine] | 40% |  |  |  | 65% | +++ (50-75%) |  | much longer lasting | 
OC(CCCN1CCC(OC(c2ccccc2)c2ccccc2)CC1)c1ccc(C2CCCCC2)cc1 (stereo not drawn) [Compound 6, 4-diphenylmethoxy-α-(4-cyclohexylphenyl)-1-piperidinebutanol] | 55% |  |  | 20% | 57% | ++ (25-50%) |  |  | 
CC(C)(C)c1ccc(C(=O)CCCN2CCC(OC(c3ccc(F)cc3)c3ccc(F)cc3)CC2)cc1 [Compound 7, 4-di(4-fluorophenyl)methoxy-1-[3-(4-tert-butylbenzoyl)propyl]-piperidine] | 13% |  |  | 40% | 62% | +++ (50-75%) |  | much longer lasting | 
CC(C)(C)c1ccc(C(O)CCCN2CCC(OC(c3ccccc3)c3ccccc3)CC2)cc1 (stereo not drawn) [Compound 8, 4-diphenylmethoxy-α-(4-tert-butylphenyl)-1-piperidinebutanol] | 58% |  |  | 60% | 69% | ++ (25-50%) |  |  | ++ (25-50%)
CC(C)(C)c1ccc(C(O)CCCN2CCC(C(O)(c3ccccc3)c3ccccc3)CC2)cc1 (stereo not drawn) [TERFENADINE, α-[4-(1,1-dimethylethyl)phenyl]-4-(hydroxydiphenylmethyl)-1-piperidinebutanol, reference compound] | 100% |  |  | 20% | 44% |  | > 1000 mg/kg |  | + (10-25%)

— patent US4550116A, “Piperidine derivatives” (Fordonal, S.A., priority 1983, dated 1985)
